From PMC4526917 (Journal of Experimental Botany, 2015)
Peptide text beside a SMILES is read from it.

Assays:
maize pollen tube = test system: maize pollen tube; set-up: method as in Amien et al., 2010; details: ref Amien et al., 2010; cited from earlier work
U. maydis spores [1] = details: for inhibition of germination of Ustilago spores: 24 h, 90 μM
F. graminearum conidia = assay type: cell-based, Fusarium graminearum; details: for fungal germination in Fusarium / conidia that did not germinate at all: 90 µM peptide; for fungal germination in Fusarium: 24 hours in PGM, absorbance at 595 nm, germination above 60% taken as threshold; for conidia that did not germinate at all: microscopy; for concentration giving complete suppression of conidia germination: PGM, 24h
U. maydis spores [2] = assay type: cell-based, Ustilago maydis
maize pollen tubes = assay: Pollen tube burst assay; assay type: cell-based, Zea mays; details: for maize pollen tube burst: mean ±SD
Procedure: The assay was applied as described ([Woriedh et al., 2013]). Briefly, freshly collected pollen was immediately distributed onto Petri dishes containing droplets of 10 µL PGM at different pH values. Pollen tubes started to burst or to grow after about 10min. Pollen tubes were subjected to further studies only if germination rates exceeded 80%. After optimization, PGM at pH 5 was applied to all pollen tube assays. A 10 µL solution of the above peptides or acetonitrile as a negative control was added to each droplet of germinated pollen using a Cell-TramH Air pump (Eppendorf) and a glass micropipette. During this assay, droplets were observed using an Eclipse TE2000 inverted microscope (Nikon) equipped with a 1.4 Megapixel digital AxioCam MRm camera (black and white) and AxioVision digital image processing software (Release 4.8).

[3] = test system: F. graminearum conidia and mycelia; assay type: cell-based, Fusarium graminearum; details: NBT staining of superoxide; 60 µM peptide (Fig. 6)
[4] = test system: F. graminearum conidia and mycelia; assay type: cell-based, Fusarium graminearum; details: 90 µM peptide, after 6h; microscopy
U. maydis spores [5] = assay type: cell-based, Ustilago maydis; remark: listed apart in the source

| Compound | effect on maize pollen tube growth behaviour (maize pollen tube) | concentration giving complete suppression of spore germination (U. maydis spores [1]) | germination of Ustilago spores (U. maydis spores [1]) | spores that did not germinate at all (U. maydis spores [1]) | inhibition of germination of Ustilago spores (U. maydis spores [1]) | fungal germination in Fusarium (F. graminearum conidia) | conidia that did not germinate at all (F. graminearum conidia) | concentration giving complete suppression of conidia germination (F. graminearum conidia) | ROS production in U. maydis spores (U. maydis spores [2]) | maize pollen tube burst (maize pollen tubes; 500nM peptide in PGM pH 5, measured 5min after application, P < 0.001) | time after application until pollen tubes started to burst (maize pollen tubes; PGM pH 5, in words) | ROS production in F. graminearum conidia and mycelia [3] | effect on developed F. graminearum mycelia (24 hpi) [4] | effect on U. maydis spores (U. maydis spores [5]) | maize pollen tube burst (maize pollen tubes; peptide concentration not stated at this place (100nM, 250nM and 500nM applied), PGM pH 5, 5min after application) |
| --- | --- | --- | --- | --- | --- | --- | --- | --- | --- | --- | --- | --- | --- | --- | --- |
| AFP2: anti-fungal protein AFP2 from radish (Raphanus sativus) (QKLCQRPSGTWSGVCGNNNACKNQCIRLEKARHGSCNYVFPAHKCICYFPC; UniProt P30230 30-80, looked up) | did not affect | – | – | – | – | – | – | – | – | – | – | – | – | – | – |
| CC[C@H](C)[C@H](NC(=O)CNC(=O)[C@H](CC(=O)O)NC(=O)[C@H](CC(C)C)NC(=O)[C@@H](NC(=O)[C@@H](NC(=O)[C@@H]1CCCN1C(=O)[C@H](CO)NC(=O)[C@@H](NC(=O)[C@H](CC(C)C)NC(=O)[C@H](CS)NC(=O)[C@@H](N)CCCNC(=N)N)[C@@H](C)CC)[C@@H](C)CC)[C@@H](C)O)C(=O)N[C@@H](CC(C)C)C(=O)N[C@@H](CS)C(=O)N[C@@H](Cc1ccc(O)cc1)C(=O)O [ES-d] (H-RCLISPITLDGILCY-OH; N-terminus and C-terminus assumed) | – | 120 µM | 20.6±2.1% | Approximately 80% | 78.7±1.0% | 20.6±2.1% | Approximately 80% | 120 µM | ROS production was also detected | 82.5±5.2% | within a few seconds | strongly produced ROS | breaking/bursting of cell walls and release of vacuoles | burst of swelling spores and excretion of vacuoles and cell components | – |
| CC(C)C[C@H](NC(=O)[C@H](CS)NC(=O)[C@H](CCCNC(=N)N)NC(=O)CNC(=O)CNC(=O)[C@@H](NC(=O)[C@H](Cc1ccc(O)cc1)NC(=O)CNC(=O)[C@H](CCCCN)NC(=O)CNC(=O)[C@H](CCC(=O)O)NC(=O)[C@H](C)NC(=O)[C@H](CCCNC(=N)N)NC(=O)[C@H](CS)NC(=O)CN)[C@@H](C)O)C(=O)O [ES-c] (H-GCRAEGKGYTGGRCL-OH; N-terminus and C-terminus assumed) | – | 120 µM | 19.1±3.8% | Approximately 80% | 80.9±1.0% | 19.1±3.8% | Approximately 80% | 120 µM | ROS production was also detected | – | – | strongly produced ROS | breaking/bursting of cell walls and release of vacuoles | – | 29.3±4.2% |
